# Source: patent US20240336573A1, “COMPOUND FOR THE TREATMENT AND PROPHYLAXIS OF INFECTIOUS DISEASES” (Eberhard Karls Universität Tübingen Medizinische Fakultät, priority 2021, published 2024)
# What was measured:
# [1] = test system: E. coli BW25113, E. coli JW2496-3, E. coli ATCC 25922; experiment: Minimal inhibitory concentration assay (bactericidal/bacteriostatic assessment); assay type: cell-based; conditions: dilution series 100-1.7 μM
# From the text: The intended effect of a SurA inhibitor should be the induction of a disturbance of the outer membrane composition resulting in an increased susceptibility to antibiotic treatment. Of note, Vancomycin is typically not used to treat infections with Gram-negative bacteria, because it is excluded by the OM and not efficient at concentrations that could be achieved in patients. However, at appropriate dosing in vitro it can be used to detect outer membrane defects. For determining a potential sensitizing effect of Vancomycin treatment, the inventors first tested whether the compounds at hand were bactericidal per se. Therefore, the inventors performed a minimal inhibitory concentration (MIC) assay. To this end, 5 ml overnight cultures of E. coli BW25113 (Keio-Collection reference strain), E. coli JW2496-3 (Keio-Collection single gene knockout for bamB, which suffers from decreased outer membrane integrity) and E. coli ATCC 25922 (a reference strain recommended for antibiotic susceptibility testing) were grown in Mueller Hinton Broth, Cation adjusted (MHB-II). The next day, the OD was adjusted to obtain 1*10^8 CFU/ml using fresh MHB-II. Next, this bacterial solution was diluted 1:100 into 20 ml fresh MHB-II. 50 μl of this bacteria solution were then transferred into each well of a 96-well plate prefilled with 50 μl MHB-II supplemented with the desired compounds. The test plates for the bactericidal assessment contained dilution series of the compounds from 100-1.7 μM. Plates were sealed with a gas permeable membrane and incubated o/n at 37° C. in a humid chamber without shaking. After o/n incubation, bacterial growth was quantified by measuring the optical density at 600 nm wavelength in a multiplate reader. Compounds showing no growth inhibition at 100 μM were considered non-bactericidal. Of note, the bactericidal effect of Vancomycin was assessed similarly for each test strain using Vancomycin concentrations ranging from […]. This was done to identify a Vancomycin concentration at which the strains just managed to survive.
# [2] = Solubility estimate based on turbidity (OD600 nm); assay type: physicochemical
# From the text: The evaluation of these shelf derivatives included an estimate of their solubility based on the turbidity (OD600 nm) as well as their activity in the primary assay (2.1), their KD (2.2), their MIC reduction of Vancomycin (2.5) and their cytotoxicity (2.6) (Table 4).
# SurA = SurA (Escherichia coli, UniProt P0ABZ6); experiment: Luciferase-based SurA activity assay at the ELF (primary screen P1, dose response C2); assay type: biochemical, E. coli
# Sequence of SurA (P0ABZ6 21-428): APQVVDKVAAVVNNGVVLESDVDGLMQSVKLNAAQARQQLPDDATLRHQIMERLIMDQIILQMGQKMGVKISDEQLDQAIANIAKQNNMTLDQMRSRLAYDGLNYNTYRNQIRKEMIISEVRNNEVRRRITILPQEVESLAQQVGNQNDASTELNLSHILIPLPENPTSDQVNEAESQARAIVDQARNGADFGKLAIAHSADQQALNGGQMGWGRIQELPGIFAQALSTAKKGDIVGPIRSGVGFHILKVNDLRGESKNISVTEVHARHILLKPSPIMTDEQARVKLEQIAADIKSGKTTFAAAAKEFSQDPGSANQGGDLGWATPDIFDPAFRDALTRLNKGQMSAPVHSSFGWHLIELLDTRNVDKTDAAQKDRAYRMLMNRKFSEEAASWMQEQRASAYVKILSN
# From the text: The biological function of SurA is to bind and to keep outer membrane proteins that have reached the periplasm in an unfolded but folding-competent state. The inventors' assay is based on this interaction and uses firefly Luciferase (fLuc) as a non-native substrate. […] This is exploited in the assay (FIG. 3). The loss of tertiary structure of fLuc leads to the exposure of binding sites for SurA. It is known that SurA binds selectively to a special group of substrates. These substrates have in common the specific patterns of hydrophobic amino acids that are highly enriched in the beta strands of integral outer membrane proteins. These motifs are present in OMPs of all Gram-negative bacteria and in fLuc as well. Upon mild heat treatment of fLuc and its subsequent partial unfolding, fLuc is accepted as a substrate by SurA. Of note, these intermediates served as reporter substrates to determine the activity of a […] folding chaperone. […] This interaction remains stable upon temperature reduction. Next, the temperature of the assay is reduced to room temperature and luciferase activity is subsequently measured by addition of Luciferin and ATP. In conditions without SurA, fLuc will refold into its active conformation resulting in a luminescence signal.
# Of note, the SurA activity assay was performed similar at the ELF but with optimizations in regard of the higher throughput including the change of the plate format to 1536-wells. The SurA activity assay performed at the ELF contained the following steps (adapted from the QHL report provided by the ELF). First, SurA was thawed at RT and heat activated in a water bath. Next, the vial was taken out of the water bath and cooled down to RT for 30 min @ bench. Afterwards, the SurA concentration was adjusted in assay buffer to 2 μM. Noteworthy, the SurA solution was kept on ice. […] Finally, 2 μL substrate mix (180 μM Luciferin with 12 mM ATP) were added simultaneously to all wells using the Fluorometric Imaging Plate Reader (FLIPR) and the luminescence signal was measured immediately afterwards on the FLIPR (Gain 70,000). […]
Compound,Bacteriostatic MIC Assay Result [1],Solubility (in words) [2],"DRC (C2) pIC50 (SurA; 7 concentration steps 20 μM to 27.4 nM, n=2)","Primary assay (P1) % Effect (SurA; ELF library screen, 1536-well)","Primary assay (P1) Z-score (SurA; ELF library screen, 1536-well)"
"NC(=O)c1nc(Cc2ccc(OCC(=O)O)cc2)[nH]c1NC(=O)c1ccc(-c2ccccc2)cc1 [Compound 2a, 2-(4-((5-([1,1′-biphenyl]-4-carboxamido)-4-carbamoyl-1H-imidazol-2-yl)methyl)phenoxy)acetic acid]",non-bacteriostatic,,,,
CN(C)c1ccc(-c2nc3cc(NC(=O)Cn4cc5ccccc5n4)ccc3[nH]2)cc1 [QHL-24],,poor solubility,5.45,151%,191.97
